Test [1] addresses E. faecalis SAS RelQ (RelQEf) (Enterococcus faecalis, UniProt Q830U9). Description: Inhibition of E. faecalis SAS RelQ ppGpp synthesis. In kind it is biochemical. The conditions noted are these: for Effect on RelQEf activity (in words): concentrations up to 1 mM. From the text: In E. coli, ppGpp is synthesized by the multi-domain RSHs RelA and SpoT, however, numerous single-domain RSHs – Small Alarmone Synthetases (SAS) – are widely distributed across bacterial taxa[3]. […] Therefore we tested the effects of DR-4250, DR-M014 and DR-5163 on RelQEf activity (Supplementary Figure 2).
Detailed description of experimental procedures can be found in Supplementary Text. Biochemical assays utilize in vitro translation[58] and stringent response[15] systems from E. coli purified components. Experiments were performed in HEPES:Polymix[58] buffer with either 5 (for enzymatically assembled initiation complexes) or 15 mM (for vacant 70 S, as well as non-enzymatically assembled programmed ribosomes) Mg^2+. Expression and purification of E. faecalis RelQ was performed as per Gaca (2015) and colleagues. GTPase and ppGpp synthesis were followed using TLC separation and radiochemical detection of ^3H-labelled nucleotides. Multiple round in vitro transcription assays were performed as per Bernardo et al.[49] with minor modifications. Inhibition efficiency (IC50) was calculated using 4-parameter logistic model (Hill equation) as per Sebaugh[60].
RelQ activity0.4 RelQ activity0.4 RelQ activity0.4
Supplementary Figure 2 | Inhibition of E. faecalis SAS RelQ by DR-4250, DR-
M014 and DR-5163 is inefficient. The reaction mixture contains 0.25 µM RelQEf,
300 µM [3H] GDP, 0.5 mg/ml BSA, 100 µM ppGpp, 1 mM ATP in Hepes:Polymix at […]

For the next test, the target named is T1, E. coli RelA (Escherichia coli, UniProt P0AG20).
T1 construct: made in house
T1 sequence (P0AG20 whole entry): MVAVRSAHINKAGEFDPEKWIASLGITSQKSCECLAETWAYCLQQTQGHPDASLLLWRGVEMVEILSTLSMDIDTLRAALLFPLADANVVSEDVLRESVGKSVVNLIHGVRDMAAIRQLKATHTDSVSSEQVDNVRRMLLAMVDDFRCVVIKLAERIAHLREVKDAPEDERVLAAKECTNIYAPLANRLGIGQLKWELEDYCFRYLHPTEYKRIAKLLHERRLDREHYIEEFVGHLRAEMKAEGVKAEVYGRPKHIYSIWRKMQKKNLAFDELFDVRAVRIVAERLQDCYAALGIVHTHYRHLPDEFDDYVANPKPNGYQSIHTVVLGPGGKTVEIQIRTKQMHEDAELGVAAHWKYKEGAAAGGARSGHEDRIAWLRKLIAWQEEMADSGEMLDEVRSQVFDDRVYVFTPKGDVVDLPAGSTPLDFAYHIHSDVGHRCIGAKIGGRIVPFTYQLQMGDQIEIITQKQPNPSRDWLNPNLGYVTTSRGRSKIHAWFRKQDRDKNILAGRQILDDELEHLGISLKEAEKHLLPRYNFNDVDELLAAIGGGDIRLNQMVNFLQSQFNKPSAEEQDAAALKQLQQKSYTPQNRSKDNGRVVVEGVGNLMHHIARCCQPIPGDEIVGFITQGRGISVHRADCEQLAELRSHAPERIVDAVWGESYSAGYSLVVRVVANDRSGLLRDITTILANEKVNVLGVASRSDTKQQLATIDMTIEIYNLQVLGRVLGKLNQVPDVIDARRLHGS
Description: Inhibition of RelA activated by programmed 'starved' ribosomal complexes containing deacylated A-site tRNAPhe. The format is biochemical. The conditions noted are these: 30 nM RelA, 0.5 μM 70S, 2 μM tRNAPhe, 2 μM tRNAiMet, 2 μM mRNA(MF), 100 μM ppGpp, 0.3 mM [3H]GDP, 1 mM ATP, 5 mM Mg2+; read-out: IC50, 70S(MF:tPhe). The procedure: Screening was performed in a cost-efficient way using RelA activated by the presence of vacant 70S ribosomes and 100 μM ppGpp. However, to become fully active, RelA requires the presence of ‘starved’ ribosomal complexes containing deacylated A-site tRNA[17]. We therefore prepared ‘starved’ complexes using model mRNA coding for fMetPhe (MF) dipeptide and purified deacylated tRNAs tRNA^Phe and tRNA^fMeti[42] to test the efficiency of DR-4250 and DR-M014 in this more physiologically relevant system (Fig. 4a,b).
Figure 4 Functional studies of DR-M014 and DR-4250 with programmed ribosomal complexes. (a,b) Inhibition of RelA activated by starved ribosomal complexes containing deacylated A-site tRNA^Phe. […]
Both EF-G GTPase reaction and ppGpp synthesis by RelA were followed by TLC analysis followed by scintillation counting according to Mechold and colleagues, with modifications1. […] TLC was run in buffer, plates dried, cut into sections guided by UV-shadowing and 3H radioactivity was quantified by scintillation counting in Optisafe-3 (Fisher) scintillation cocktail on Perkin Elmer Tricarb 2810TR counter. Conversion of substrate to product was quantified as described in Shyp et al. (2012)2. […]
Screening: all experiments were performed in HEPES:Polymix, Mg2+ of 5 mM, 37 °C. […] Inhibition efficiency (IC50) was calculated using 4-parameter logistic model (Hill equation) as per Sebaugh (2011)3. […]

This note sets out measurements from PMC5291098, “Molecular mutagenesis of ppGpp: turning a RelA activator into an inhibitor” (Scientific Reports, 2017).

Entries after “also recorded” stand apart in the source; their conditions may differ.

Chain of E. faecalis SAS RelQ (RelQEf) (Q830U9 entry or part of it): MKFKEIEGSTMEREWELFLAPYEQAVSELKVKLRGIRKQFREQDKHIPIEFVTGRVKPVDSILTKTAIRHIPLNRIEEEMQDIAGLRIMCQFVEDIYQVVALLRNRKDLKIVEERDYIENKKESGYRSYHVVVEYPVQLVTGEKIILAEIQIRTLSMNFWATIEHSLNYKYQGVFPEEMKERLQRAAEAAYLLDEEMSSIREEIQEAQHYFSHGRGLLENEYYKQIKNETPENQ

Take `Nc1nc2c(ncn2C2OC(COP(=O)(O)OCP(=O)(O)O)C(OP(=O)(O)OCP(=O)(O)O)C2O)c(=O)[nH]1` (centres unmarked) [DR-4250, Guanosine 3’,5’-di(phosphonomethoxyphosphate)]: the concentration for half-maximal inhibition (IC50) came to 235 ± 19 µM in test [1] (0.25 µM RelQEf, 300 µM [3H]GDP, 100 µM ppGpp, 1 mM ATP, 37°C) and 41 ± 7 µM at E. coli RelA. In test [1], the “Effect on RelQEf activity (in words)” value is “inefficient”.

Regarding `Nc1nc2c(ncn2C2CCN(C(=O)P(=O)(O)O)CC2)c(=O)[nH]1` [DR-M014], in test [1], the “Effect on RelQEf activity (in words)” value is “inefficient; also recorded: almost inactive”. Also, the IC50 on E. coli RelA stood at 155 ± 14 µM.
